The values that follow come from US11174252B2, “Heterocyclic compounds as kinase inhibitors” (priority 2018, dated 2021).

One test deals with DU4475. The test is described as follows: Cancer cell proliferation assay, single agent. Format: cell-based. The note with it: Homo sapiens.
The test system of the next test is MCF-7. The test is described as follows: Cancer cell proliferation assay, single agent. Format: cell-based. To be noted: Homo sapiens.
For the next test, the target named is CDK4 (Homo sapiens (Human), UniProt P11802). The test is described as follows: In vitro kinase inhibition, luminescence (ADP-Glo) with retinoblastoma substrate. Format: biochemical. Background: ADP-Glo first removes unused ATP, then detects ADP through luciferase.
A further test deals with FMS kinase (Homo sapiens (Human), UniProt P07333). The test is described as follows: LanthaScreen kinase assay (ATP, fluorescent-PolyGT substrate, TR-FRET). The test is classed as biochemical. (In general: Time-resolved FRET reads energy transfer from a long-lived donor to a nearby acceptor.)
Another test addresses CDK6 (Homo sapiens (Human), UniProt Q00534). The test is described as follows: biochemical. Format: biochemical.
Where [1] appears, read: DU-4475, read-out: IC50 (nM) DU4475.
Setting [2] is: MCF7, read-out: IC50 (nM) MCF-7.
[3] abbreviates: DU-4475, DU4475 cells, treated for 24-168 hours, read-out: IC50 (nM) DU4475.
Where [4] appears, read: MCF7, MCF-7 cells, treated for 24-168 hours, read-out: IC50 (nM) MCF-7.

The structures appear in SMILES notation. Counter-ions that a name gives are not always drawn. Like-named read-outs stand apart in the source and are kept apart here. Where only a bound is given, the exact number is not on record here.

Chain of FMS kinase (P07333 20-972): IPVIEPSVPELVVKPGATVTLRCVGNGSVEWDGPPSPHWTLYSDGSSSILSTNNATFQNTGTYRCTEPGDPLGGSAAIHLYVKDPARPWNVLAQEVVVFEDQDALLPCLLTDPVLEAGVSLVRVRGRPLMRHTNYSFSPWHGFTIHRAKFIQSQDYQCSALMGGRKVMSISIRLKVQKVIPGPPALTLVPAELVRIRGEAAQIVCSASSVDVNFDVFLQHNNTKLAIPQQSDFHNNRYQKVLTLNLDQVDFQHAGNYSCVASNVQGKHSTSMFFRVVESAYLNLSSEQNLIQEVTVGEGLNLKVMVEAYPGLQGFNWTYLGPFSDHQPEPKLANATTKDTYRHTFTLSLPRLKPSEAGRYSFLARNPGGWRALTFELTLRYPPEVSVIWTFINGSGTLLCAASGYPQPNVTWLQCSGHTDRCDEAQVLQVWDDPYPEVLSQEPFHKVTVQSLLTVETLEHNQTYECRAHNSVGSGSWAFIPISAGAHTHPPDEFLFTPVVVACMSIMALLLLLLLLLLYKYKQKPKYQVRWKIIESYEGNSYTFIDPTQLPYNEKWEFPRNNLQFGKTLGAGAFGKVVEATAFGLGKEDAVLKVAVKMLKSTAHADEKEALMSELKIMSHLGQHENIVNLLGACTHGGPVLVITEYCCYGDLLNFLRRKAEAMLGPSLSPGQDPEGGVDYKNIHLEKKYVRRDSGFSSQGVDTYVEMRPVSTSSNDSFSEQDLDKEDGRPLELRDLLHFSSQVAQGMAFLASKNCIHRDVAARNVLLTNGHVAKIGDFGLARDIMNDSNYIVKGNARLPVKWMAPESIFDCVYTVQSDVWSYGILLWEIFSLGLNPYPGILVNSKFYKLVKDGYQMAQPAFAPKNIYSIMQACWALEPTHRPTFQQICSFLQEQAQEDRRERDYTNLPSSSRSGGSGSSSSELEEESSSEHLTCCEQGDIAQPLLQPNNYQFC
Chain of CDK4 (P11802 whole entry): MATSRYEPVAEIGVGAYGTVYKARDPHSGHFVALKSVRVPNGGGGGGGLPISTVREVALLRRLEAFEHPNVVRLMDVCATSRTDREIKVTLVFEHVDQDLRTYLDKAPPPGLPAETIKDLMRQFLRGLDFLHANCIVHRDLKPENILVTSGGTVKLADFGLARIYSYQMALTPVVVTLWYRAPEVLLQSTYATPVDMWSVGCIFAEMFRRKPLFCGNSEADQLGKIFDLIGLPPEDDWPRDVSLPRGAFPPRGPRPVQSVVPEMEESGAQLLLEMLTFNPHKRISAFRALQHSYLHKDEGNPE
Chain of CDK4 (P24385 whole entry partner): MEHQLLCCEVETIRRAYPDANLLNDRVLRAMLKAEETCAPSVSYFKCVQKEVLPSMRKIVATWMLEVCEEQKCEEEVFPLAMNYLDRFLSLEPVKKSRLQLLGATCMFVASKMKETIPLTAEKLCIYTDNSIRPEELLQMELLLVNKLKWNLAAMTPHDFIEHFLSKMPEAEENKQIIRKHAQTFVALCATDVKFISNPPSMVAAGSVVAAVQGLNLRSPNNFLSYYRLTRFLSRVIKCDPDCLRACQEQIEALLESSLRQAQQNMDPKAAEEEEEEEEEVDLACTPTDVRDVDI

In general, IC50 refers to the midpoint of a concentration-inhibition curve. `CC(C)N1CCOc2c(F)cc(-c3nc(Nc4cn(C5CCNCC5)cn4)ncc3F)cc21` [Compound 504, 5-fluoro-4-(8-fluoro-4-isopropyl-3,4-dihydro-2H-benzo[b][1,4]oxazin-6-yl)-N-(1-(piperidin-4-yl)-1H-imidazol-4-yl)pyrimidin-2-amine]: the IC50 in the test with DU4475 (setting [1]) came out at 4150 nM; in the test on MCF-7 (setting [2]), 1940 nM.

Turning to `CN1CCOc2c(F)cc(-c3nc(Nc4ccc(N5CCNCC5)c(F)c4)ncc3F)cc21` [Compound 34, 5-fluoro-N-(3-fluoro-4-(piperazin-1-yl)phenyl)-4-(8-fluoro-4-methyl-3,4-dihydro-2H-benzo[b][1,4]oxazin-6-yl)pyrimidin-2-amine], the IC50 against CDK4 is 3 nM; against FMS kinase it was 42 nM; at CDK6, 6 nM; in the test on MCF-7 (setting [2]), 50 nM.

On to `CC1CN(C(=O)c2ccc(Nc3ncc(F)c(-c4cc(F)c5c(c4)N(C(C)C)CCO5)n3)nc2)CC(C)O1` (stereo not drawn) [Compound 511, (2,6-dimethylmorpholino)(6-((5-fluoro-4-(8-fluoro-4-isopropyl-3,4-dihydro-2H-benzo[b][1,4]oxazin-6-yl)pyrimidin-2-yl)amino)pyridin-3-yl)methanone], for which the IC50 in the test with DU4475 (setting [3]) was 3790 nM; with MCF-7 (setting [4]) it was 648 nM.

On to `CCCN1CCOc2c(F)cc(-c3nc(Nc4ccc(N5CCNCC5)c(F)c4)ncc3F)cc21` [Compound 36, 5-fluoro-N-(3-fluoro-4-(piperazin-1-yl)phenyl)-4-(8-fluoro-4-propyl-3,4-dihydro-2H-benzo[b][1,4]oxazin-6-yl)pyrimidin-2-amine], for which the IC50 on CDK4 is 4 nM; against FMS kinase, 102 nM; at CDK6 it was 5 nM; with MCF-7 (setting [2]), 40 nM.

Regarding `CC(C)N1CCOc2c(Cl)cc(-c3nc(Nc4ccc(N5CCNCC5)c(F)c4)ncc3Cl)cc21` [Compound 52, 5-chloro-4-(8-chloro-4-isopropyl-3,4-dihydro-2H-benzo[b][1,4]oxazin-6-yl)-N-(3-fluoro-4-(piperazin-1-yl)phenyl)pyrimidin-2-amine], the IC50 worked out at 89 nM at CDK4, 14 nM on FMS kinase, 200 nM against CDK6 and 695 nM in the test with MCF-7 (setting [4]).

For the compound `CC(C)N1CCOc2c(F)cc(-c3nc(Nc4ccc(C(N)=O)c(F)c4)ncc3F)cc21` [Compound 790, 2-fluoro-4-((5-fluoro-4-(8-fluoro-4-isopropyl-3,4-dihydro-2H-benzo[b][1,4]oxazin-6-yl)pyrimidin-2-yl)amino)benzamide], the IC50 was determined as 20 nM in the test with DU4475 (setting [3]), 3 nM against CDK6 and 17 nM with MCF-7 (setting [4]).

Regarding `CC(C)N1CCOc2c(F)cc(-c3nc(Nc4ccc5c(c4)CC(N(C)C)CC5)ncc3F)cc21` (stereo not drawn) [Compound 206, N7-(5-fluoro-4-(8-fluoro-4-isopropyl-3,4-dihydro-2H-benzo[b][1,4]oxazin-6-yl)pyrimidin-2-yl)-N2,N2-dimethyl-1,2,3,4-tetrahydronaphthalene-2,7-diamine], the IC50 on CDK4 came out at 56 nM; at FMS kinase, 2.5 nM; at CDK6 it was 100 nM; in the test on MCF-7 (setting [4]), 670 nM.

Regarding `CCN1CCN(Cc2ccc(Nc3ncc(F)c(-c4cc(F)c5c(c4)N(C4CCC(N)CC4)CCO5)n3)nc2)CC1` (stereo not drawn) [Compound 9, 4-(4-(4-aminocyclohexyl)-8-fluoro-3,4-dihydro-2H-benzo[b][, 4]oxazin-6-yl)-N-(5-((4-ethylpiperazin-1-yl)methyl)pyridin-2-yl)-5-fluoropyrimidin-2-amine], the IC50 was more than 183 nM against CDK4, more than 5000 nM on FMS kinase, 173 nM against CDK6 and 3260 nM with MCF-7 (setting [2]).

For `COCCN1CCN(Cc2ccc(Nc3ncc(F)c(-c4cc(F)c5c(c4)N(C(C)C)CCO5)n3)nc2)CC1` [Compound 524, 5-fluoro-4-(8-fluoro-4-isopropyl-3,4-dihydro-2H-benzo[b][1,4]oxazin-6-yl)-N-(5-((4-(2-methoxyethyl)piperazin-1-yl)methyl)pyridin-2-yl)pyrimidin-2-amine], the IC50 against CDK4 came to 3.5 nM; against CDK6 it was 7.5 nM; in the test on MCF-7 (setting [4]) it was 332 nM.

`CC(C)N1CCOc2c(F)cc(-c3nc(Nc4ccc(N5CCNCC5)c(F)c4)ncc3Cl)cc21` [Compound 30, 5-chloro-N-(3-fluoro-4-(piperazin-1-yl)phenyl)-4-(8-fluoro-4-isopropyl-3,4-dihydro-2H-benzo[b][1,4]oxazin-6-yl)pyrimidin-2-amine]: the IC50 at CDK4 was found to be 1 nM; at FMS kinase it was 79 nM; against CDK6, 13 nM; in the test with MCF-7 (setting [2]), 233 nM.

Turning to `CC(C)N1CCOc2c(F)cc(-c3nc(Nc4cccc(S(N)(=O)=O)c4)ncc3F)cc21` [Compound 520], the IC50 is less than 7 nM in the test on DU4475 (setting [3]) and 13 nM in the test on MCF-7 (setting [4]).

With `CC(C)N1CCOc2c(F)cc(-c3nc(Nc4ccc(C5CCNCC5)c(C(F)(F)F)c4)ncc3F)cc21` [Compound 438, 5-fluoro-4-(8-fluoro-4-isopropyl-3,4-dihydro-2H-benzo[b][1,4]oxazin-6-yl)-N-(4-(piperidin-4-yl)-3-(trifluoromethyl)phenyl)pyrimidin-2-amine], the IC50 on CDK4 was found to be 41 nM; against FMS kinase, 5 nM; at CDK6 it was 74 nM; with MCF-7 (setting [4]), 200 nM.

For `CC(C)N1CCOc2c(F)cc(-c3nc(Nc4ccc(N5CCN(C(=O)CO)CC5)cn4)ncc3F)cc21` [Compound 506, 1-(4-(6-((5-fluoro-4-(8-fluoro-4-isopropyl-3,4-dihydro-2H-benzo[b][1,4]oxazin-6-yl)pyrimidin-2-yl)amino)pyridin-3-yl)piperazin-1-yl)-2-hydroxyethan-1-one], the IC50 with DU4475 (setting [1]) came out at 1500 nM; with MCF-7 (setting [4]) it was 354 nM.

With `CC(C)N1CCOc2c(F)cc(-c3nc(Nc4cn(C5CCN(C)CC5)cn4)ncc3F)cc21` [Compound 496, 5-fluoro-4-(8-fluoro-4-isopropyl-3,4-dihydro-2H-benzo[b][1,4]oxazin-6-yl)-N-(1-(1-methylpiperidin-4-yl)-1H-imidazol-4-yl)pyrimidin-2-amine], the IC50 with DU4475 (setting [1]) was 3420 nM; with MCF-7 (setting [2]), 1450 nM.

Turning to `Fc1cnc(Nc2ccc(N3CCNCC3)cn2)nc1-c1cc(F)c2c(c1)NCCO2` [Compound 3, 5-fluoro-4-(8-fluoro-3,4-dihydro-2H-benzo[b][1,4]oxazin-6-yl)-N-(5 (piperazin-1-yl)pyridin-2-yl)pyrimidin-2-amine], the IC50 is 3 nM at CDK4, more than 5000 nM against FMS kinase and 5.7 nM at CDK6.

For the compound `CC(C)N1C(=O)COc2c(F)cc(-c3nc(Nc4ccc(N5CCNCC5)cn4)ncc3F)cc21` [Compound 2, 8-fluoro-6-(5-fluoro-2-(5-(piperazin-1-yl)pyridin-2-ylamino)pyrimidin-4-yl)-4-isopropyl-2H-benzo[b][1,4]oxazin-3(4H)-one], the IC50 on CDK4 was 6 nM; on FMS kinase, more than 5000 nM; on CDK6 it was 6.9 nM.

On to `CC1CN(c2ccc(Nc3ncc(F)c(-c4cc(F)c5c(c4)N(C(C)C)CCO5)n3)nc2)CCN1` (stereo not drawn) [Compound 10, 5-fluoro-4-(8-fluoro-4-isopropyl-3,4-dihydro-2H-benzo[b][1,4]oxazin-6-yl)-N-(5-(3-methylpiperazin-1-yl)pyridin-2-yl)pyrimidin-2-amine], for which the IC50 against CDK4 turned out to be 4.5 nM; at FMS kinase, 570 nM; against CDK6, 2.5 nM; in the test with MCF-7 (setting [2]), 280 nM.

As to `CCN1CCOc2c(F)cc(-c3nc(Nc4ccc(N5CCNCC5)c(F)c4)ncc3F)cc21` [Compound 35, 4-(4-ethyl-8-fluoro-3,4-dihydro-2H-benzo[b][1,4]oxazin-6-yl)-5-fluoro-N-(3-fluoro-4-(piperazin-1-yl)phenyl)pyrimidin-2-amine], the IC50 at CDK4 was 2.5 nM; against FMS kinase, 58 nM; at CDK6 it was 3 nM; with MCF-7 (setting [2]) it was 20 nM.

On to `CC(C)N1CCOc2c(F)cc(-c3nc(Nc4ccc(C(=O)N5CCC(O)CC5)cn4)ncc3F)cc21` [Compound 460, (6-((5-fluoro-4-(8-fluoro-4-isopropyl-3,4-dihydro-2H-benzo[b][1,4]oxazin-6-yl)pyrimidin-2-yl)amino)pyridin-3-yl)(4-hydroxypiperidin-1-yl)methanone], for which the IC50 was 13 nM against CDK4, more than 5000 nM against FMS kinase, 18 nM at CDK6 and 595 nM in the test with MCF-7 (setting [4]).

For the compound `CC(C)N1CCOc2c(F)cc(-c3nc(Nc4ccc5c(c4)CCC(N(C)C)C5)ncc3F)cc21` (stereo not drawn) [Compound 47, N6-(5-fluoro-4-(8-fluoro-4-isopropyl-3,4-dihydro-2H-benzo[b][1,4]oxazin-6-yl)pyrimidin-2-yl)-N2,N2-dimethyl-1,2,3,4-tetrahydronaphthalene-2,6-diamine], the IC50 against CDK4 is 3.5 nM; against FMS kinase, 2.5 nM; against CDK6, 4 nM; in the test with MCF-7 (setting [4]) it was 20 nM.

As to `CC1CN(C(C)C)c2cc(-c3nc(Nc4ccc(N5CCNCC5)c(F)c4)ncc3F)cc(F)c2O1` (stereo not drawn) [Compound 32, 5-fluoro-N-(3-fluoro-4-(piperazin-1-yl)phenyl)-4-(8-fluoro-4-isopropyl-2-methyl-3,4-dihydro-2H-benzo[b][1,4]oxazin-6-yl)pyrimidin-2-amine], the IC50 turned out to be 12 nM at CDK4, 177 nM on FMS kinase, 21 nM against CDK6 and 130 nM in the test on MCF-7 (setting [4]).

Consider `COC1CCN(c2ccc(Nc3ncc(F)c(-c4cc(F)c5c(c4)N(C(C)C)CCO5)n3)nc2)CC1` [Compound 843, 5-fluoro-4-(8-fluoro-4-isopropyl-3,4-dihydro-2H-benzo[b][1,4]oxazin-6-yl)-N-(5-(4-methoxypiperidin-1-yl)pyridin-2-yl)pyrimidin-2-amine hydrochloride], for which the IC50 stood at 65 nM against CDK4 and 24 nM on CDK6.
